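96-well plates; 48 h exposure; 5 concentrations. Endpoints by linear interpolation between flanking doses. Not reached: highest tested concentration assigned. GI50 is the concentration that inhibits growth by half.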 Activity calls are given as the source filed them. No stated cut-off is given here; in the data, active = GI50 up to about 1.1 µM and inactive = higher.
Tests used:
Test in all cases: NCI tumour cell line growth inhibition, 48 h
SN12C = system: SN12C
SK-MEL-28 = system: SK-MEL-28
786-0 = system: 786-0
SF-539 = system: SF-539
NCI-H460 = system: NCI-H460
M14 = system: M14
UO-31 = system: UO-31
PC-3 = system: PC-3
HCT-15 = system: HCT-15
CAKI-1 = system: CAKI-1
OVCAR-8 = system: OVCAR-8
HOP-92 = system: HOP-92
MDA-MB-435 = system: MDA-MB-435
SF-268 = system: SF-268
CCRF-CEM = system: CCRF-CEM
MDA-MB-231 = system: MDA-MB-231
OVCAR-3 = system: OVCAR-3
BT-549 = system: BT-549
MCF7 = system: MCF7
Malme-3M = system: Malme-3M

Measured: GI50

O=C1CC(=O)NC(NN2C(=O)CSC2c2ccc(Cl)cc2)=N1 (stereo not given)
> 100 µM: HCT-15
inactive: SN12C 18.4 µM | SK-MEL-28 > 100 µM | 786-0 37.2 µM | SF-539 > 100 µM | NCI-H460 51.3 µM | M14 55.6 µM | UO-31 21.3 µM | PC-3 > 100 µM | CAKI-1 > 100 µM | OVCAR-8 91.6 µM | HOP-92 > 100 µM | MDA-MB-435 > 100 µM | SF-268 45 µM | CCRF-CEM 25.7 µM | MDA-MB-231 36.7 µM | OVCAR-3 > 100 µM | BT-549 33.8 µM | MCF7 61.1 µM | Malme-3M 65.8 µM

CC(=O)c1sc2c(c1OC(=O)c1ccco1)c(=O)n(-c1ccccc1)c(=S)n2-c1ccccc1
18.7 µM: HCT-15
inactive: SN12C 26 µM | SK-MEL-28 23.8 µM | 786-0 26.7 µM | SF-539 4.19 µM | NCI-H460 31 µM | M14 8.11 µM | UO-31 20.3 µM | PC-3 16.9 µM | CAKI-1 32.5 µM | OVCAR-8 30.3 µM | HOP-92 5.43 µM | MDA-MB-435 15 µM | SF-268 23.2 µM | CCRF-CEM 3.93 µM | MDA-MB-231 21.5 µM | OVCAR-3 32.8 µM | BT-549 18.1 µM | MCF7 22.6 µM | Malme-3M 5.08 µM

COCOc1ccc(C2(O)Oc3cc(OCOC)ccc3C2C)c(O)c1 (stereo not given)
10.5 µM: HCT-15
inactive: SN12C 16.4 µM | SK-MEL-28 17.2 µM | 786-0 17.8 µM | SF-539 15.7 µM | NCI-H460 13.4 µM | M14 16.6 µM | UO-31 11.6 µM | PC-3 13.2 µM | CAKI-1 16.3 µM | OVCAR-8 16.8 µM | HOP-92 16.2 µM | MDA-MB-435 14.9 µM | SF-268 15.9 µM | CCRF-CEM 14.9 µM | MDA-MB-231 12.3 µM | OVCAR-3 13.4 µM | BT-549 14.2 µM | MCF7 14.3 µM | Malme-3M 15.3 µM

COc1cccc(/C=C/c2ccnc3ccccc23)c1OC
> 10 µM: HCT-15
inactive: SN12C > 10 µM | SK-MEL-28 > 10 µM | 786-0 > 10 µM | SF-539 > 10 µM | NCI-H460 > 10 µM | M14 > 10 µM | UO-31 > 10 µM | PC-3 > 10 µM | CAKI-1 > 10 µM | OVCAR-8 > 10 µM | MDA-MB-435 2.86 µM | SF-268 > 10 µM | CCRF-CEM 4.6 µM | MDA-MB-231 > 10 µM | OVCAR-3 7.78 µM | BT-549 > 10 µM | MCF7 > 10 µM | Malme-3M > 10 µM
active: HOP-92 1.08 µM

N=C1C=CC(=C(c2ccc(N)cc2)c2ccc(N)cc2)C=C1
active: SN12C 0.444 µM | SF-268 0.542 µM | BT-549 0.982 µM
12.8 µM: HCT-15
inactive: SK-MEL-28 8.13 µM | 786-0 2.36 µM | SF-539 2.02 µM | NCI-H460 3.61 µM | M14 4.05 µM | UO-31 12.5 µM | PC-3 3.12 µM | CAKI-1 19.1 µM | OVCAR-8 1.91 µM | HOP-92 3.22 µM | MDA-MB-435 4.18 µM | CCRF-CEM 3.15 µM | MDA-MB-231 4.66 µM | OVCAR-3 10 µM | MCF7 3.11 µM | Malme-3M 3.18 µM

— ChEMBL document CHEMBL1201862, “PubChem BioAssay data set” (2004)
